Reference: PMC13195669, “GPR3 Ligands Discovered through Combined Virtual and Conformational Biosensor-Based Screening” (Journal of the American Chemical Society, 2026)

Experiments:
[1] = test system: GPR3 mutant (bulky tryptophan residues in extracellular loop 2); test: GPR3 conformational biosensor with tryptophan insertions in extracellular loop 2; assay type: cell-based, human; conditions: wildtype vs mutant biosensor; transiently transfected HEK293A
Source text: To develop a hypothesis for the cause of the significant loss in efficacy from VH1 to 33, we computationally predicted the binding poses of both molecules in GPR3 (Figure a). […] In contrast, the cyclopropyl ring of 33 is still buried in the receptor’s transmembrane core. […] We also challenged this binding model of 33 with another GPR3 biosensor variant which harbors the T^3.37A point mutation in transmembrane helix 3. According to an alternative predicted pose of 33 obtained with Boltz-2 (c.f., SI – Materials and Methods section), this mutation should hamper 33 binding to GPR3.
5 Proposed binding poses of VH1 and 33. […]
Cells expressing the conformational GPCR biosensors were grown for 24 h (stable cells) or 48 h (transiently transfected cells) in white 96-well plates and washed with 100 µl of HBSS. […] Three baseline BRET reads were recorded and averaged prior to the addition of serial dilutions of ligands or veh icle control and subsequent BRET reads. […] BRE T donor emission was quantified with a 470/80 nm monochromator. […] Experiments were carried out using a CLARIOstar plate reader.
FRET- and BRET-based measurements of cAMP levels and Gs dissociation/reassociation Transfected cells grown in black 96-well plates were washed twice with 100 µl of HBSS 48 h after transfection and incubated with HBSS. […] FRET donor emission was quantified with a 480/10 nm filter. […]

[2] = target: T1, S1P receptor 1 (S1PR1) (Homo sapiens, UniProt P21453); test: cAMP GloSensor 22F, agonist-stimulated S1PR1; assay type: cell-based; conditions: preincubation with 100 μM or 10 μM; 10 µM forskolin
T1 construct: expressed in transfected cells; host or cells: HEK293A, transient
T1 sequence (P21453 whole entry, species assumed): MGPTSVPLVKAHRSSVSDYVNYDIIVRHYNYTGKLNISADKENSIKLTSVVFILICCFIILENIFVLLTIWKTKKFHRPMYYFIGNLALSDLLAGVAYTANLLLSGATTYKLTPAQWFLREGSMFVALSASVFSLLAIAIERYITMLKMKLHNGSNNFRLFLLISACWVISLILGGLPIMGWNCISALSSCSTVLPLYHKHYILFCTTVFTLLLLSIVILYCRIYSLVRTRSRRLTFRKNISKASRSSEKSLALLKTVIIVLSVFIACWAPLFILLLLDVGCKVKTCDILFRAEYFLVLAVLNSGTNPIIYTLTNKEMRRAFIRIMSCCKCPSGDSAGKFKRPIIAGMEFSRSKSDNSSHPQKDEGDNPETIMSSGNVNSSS
Procedure: (§1) Next, we used the classical cAMP GloSensor technology to assess the target selectivity profile of 33. […] In addition, we tested the effects of 33 on cAMP changes mediated by agonist-stimulated GPCRs phylogenetically close to GPR3 and coupling to Gs or Gi/o proteins.
(§2) BRET-based GPCR conformational sensor experiments
(§3) Cells expressing the conformational GPCR biosensors were grown for 24 h (stable cells) or 48 h (transiently transfected cells) in white 96-well plates and washed with 100 µl of HBSS. After washing, cells were incubated for 2 minutes with a 1/1000 solution of the furimazine stock solution (Promega; cat. no. N1662). Three baseline BRET reads were recorded and averaged prior to the addition of serial dilutions of ligands or veh icle control and subsequent BRET reads. […] BRE T donor emission was quantified with a 470/80 nm monochromator. […] Experiments were carried out using a CLARIOstar plate reader.
(§4) FRET- and BRET-based measurements of cAMP levels and Gs dissociation/reassociation Transfected cells grown in black 96-well plates were washed twice with 100 µl of HBSS 48 h after transfection and incubated with HBSS. […] Three baseline FRET/BRET reads were recorded and averaged prior to the addition of serial dilutions of ligands or vehicle control and sub-sequent FRET/BRET reads. […] FRET donor emission was quantified with a 480/10 nm filter. […]
(§5) Luminescence measurement using the cAMP GloSensor™ 22F […]

[3] = target: T2, adenosine A2B receptor (A2BR) (Homo sapiens, UniProt P29275); test: cAMP GloSensor 22F, agonist-stimulated A2BR; assay type: cell-based; conditions: preincubation with 100 μM or 10 μM
T2 construct: expressed in transfected cells; host or cells: HEK293A, transient
T2 sequence (P29275 1-332): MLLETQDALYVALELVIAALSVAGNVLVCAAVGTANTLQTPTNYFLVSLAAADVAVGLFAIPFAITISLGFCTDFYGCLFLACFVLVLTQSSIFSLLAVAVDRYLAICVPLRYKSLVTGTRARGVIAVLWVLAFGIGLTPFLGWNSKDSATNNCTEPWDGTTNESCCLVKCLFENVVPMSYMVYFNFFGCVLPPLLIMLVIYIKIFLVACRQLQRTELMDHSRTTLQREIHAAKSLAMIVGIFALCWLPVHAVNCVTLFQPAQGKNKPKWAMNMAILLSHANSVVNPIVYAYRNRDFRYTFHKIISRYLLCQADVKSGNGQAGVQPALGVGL
Procedure: as §1, §2, §3, §4, §5

[4] = target: T3, LPA receptor 1 (LPAR1) (Homo sapiens, UniProt Q92633); test: cAMP GloSensor 22F, agonist-stimulated LPAR1; assay type: cell-based; conditions: preincubation with 100 μM or 10 μM; 10 µM forskolin
T3 construct: expressed in transfected cells; host or cells: HEK293A, transient
T3 sequence (Q92633 whole entry, species assumed): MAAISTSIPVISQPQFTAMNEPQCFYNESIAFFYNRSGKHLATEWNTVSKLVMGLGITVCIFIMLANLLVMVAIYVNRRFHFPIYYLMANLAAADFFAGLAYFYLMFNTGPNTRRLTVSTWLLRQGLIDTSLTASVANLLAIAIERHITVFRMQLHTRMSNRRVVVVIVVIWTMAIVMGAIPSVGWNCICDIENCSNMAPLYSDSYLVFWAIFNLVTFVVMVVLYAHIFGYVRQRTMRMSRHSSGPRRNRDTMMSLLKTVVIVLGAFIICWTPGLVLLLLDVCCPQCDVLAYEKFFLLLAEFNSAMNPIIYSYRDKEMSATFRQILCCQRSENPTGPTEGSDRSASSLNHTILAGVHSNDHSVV
Procedure: as §1, §2, §3, §4, §5

SMILES | effect of extracellular loop 2 tryptophan insertions on concentration-response [1] | effect on agonist-induced cAMP change mediated by S1PR1 [2] | effect on agonist-induced cAMP change mediated by A2BR [3] | effect on agonist-induced cAMP change mediated by LPAR1 [4]
N=c1n(Cc2ccccc2)c2ccccc2n1CC(O)COc1ccc(Cl)cc1 (centres unmarked) [compound 52] | right-shifted |  |  | 
N=c1n(Cc2ccccc2)c2ccccc2n1CC1CC1 [compound 33] | not affected by these modifications | neither 100 μM nor 10 μM 33 significantly altered | neither 100 μM nor 10 μM 33 significantly altered | neither 100 μM nor 10 μM 33 significantly altered
